Assay results: patent US5677285A, “Derivatives of neuraminic acid” (Fidia S.P.A., priority 1992, dated 1997)

Test system: cerebellar granule cells
Assay: Protective effect on exogenous glutamate-induced neurotoxicity during cotreatment, FDA/PI test
Assay type: cell-based, rats
Conditions: Rattus norvegicus, 24 h, glutamate 50 μM cotreatment, read-out: % surviving cells N = 4 (average + s.e.) FDA/PI test
Description: Primary cerebellar granule cells were prepared from 8 day old rats (Zivic Miller, Pittsburgh, Pa, USA). […] Glial proliferation was prevented by arabinofuranoside cytosine.
The following concentrations were tested: 5×10^-6 M, 1×10^-5 M, and 2×10^5 M.
The cell culture medium was aspirated from the plates (and correctly maintained). Plates were washed (3×2 ml) with Locke's solution without Mg^++, and solutions (1.5 ml) containing the compound to be tested (concentrations from 5×10^6 M to 2×10^5 M) were added and incubated for 2 hours in an incubator at 37° C. (5% CO2).
Treated cells were washed (3×2 ml) with Locke's solution+10% fetal calf serum, then washed (3×2 ml) with Locke's solution without Mg^++. 1.5 ml of Locke's solution (-Mg^++) or 50 μM of glutamate±the test compound (concentrations between 1 and 4×10^-5 M) in 1.5 ml of Locke's solution (-M^++) were added. The incubation was conducted for 15 minutes (37° C.). Glutamate and the compound were removed. The plates were washed with Locke's solution (2×2 ml), and then incubated in the presence of the starting medium (correctly maintained) for 24 hours at 37° C. in an incubator (5% CO2). […] The stained cells where immediately analyzed using a standard fluorescence microscope for epiillumination (Vanox Olympus, 450 nm excitation, 520 nm emission). FDA, a non polar ester, crosses cell membranes and is hydrolyzed by intracellular esterases with the consequent production of a yellow greenish color.
After glutamate treatment, some neurons can degenerate and detach from the plates. The loss of cells was estimated by comparing the number of intact or degenerated neurons in a well defined field, which was photographed before and after 24 hours after application of glutamate. The percent of surviving neurons in 4 representative fields (magnification 40×) of each monolayer was determined by a researcher unaware of the experimental conditions, evaluating the FDA/PI color, and calculating it as follows: [formula]
Data are expressed as % of surviving cells. Significance was calculated using the Dunnett's test.

`CCCCCCCCCCCCCCCC(=O)NC1C(O)CC(OCC)(C(=O)N(C)C)OC1C(O)C(O)CO` (stereo not drawn) [ND37, β-2-O-ethylglycoside of the dimethylamide of N-palmitoylneuraminic acid] was tested, and the viability at 10 µM (ND37 1 × 10^-5 M) was 34 ± 2%, the viability at 20 µM (ND37 2 × 10^-5 M) was 70 ± 6% and the viability at 40 µM (ND37 4 × 10^-5 M) was 88 ± 4.5%.
